Measurements published in ChEMBL document CHEMBL1134323, “Structural basis for the binding affinity of xanthines with the DNA intercalator acridine orange” (J Med Chem, 2001).

tested on: Nucleic Acid
Description: Binding affinity to DNA intercalator Acridine orange.

K ass [M⁻¹]	Compound
38.5	Cn1c(=O)c2[nH]c(=O)[nH]c2n(C)c1=O
0	Oc1nc(O)c2nc(O)[nH]c2n1
0	Cc1ncnc2nc[nH]c12
0	Clc1ncnc2[nH]cnc12
0	Cn1c(O)nc2[nH]c(=O)[nH]c(=O)c21
79.2	Cn1c(=O)[nH]c2[nH]cnc2c1=O
2	c1nc2c[nH]cnc-2n1
552	Cn1c(=O)c2c(n(C)c1=O)n(C)c(=O)n2C

Further lines, the molecule ahead of its results:

Compound	K ass [M⁻¹]
Cn1c2c(c(=O)n(C)c1=O)NCN2.N/C=C/N	596
Nc1nc2[nH]cnc2c(=O)[nH]1	0
Cn1c(=O)c2[nH]cnc2n(C)c1=O	157
Cn1c(=O)[nH]c(=O)c2[nH]cnc21	10
CN1CNc2[nH]c(=O)n(C)c(=O)c21	155
O=c1[nH]c(=O)c2nc[nH]c2[nH]1	0
